Source: PMC12040169 (PLOS Biology, 2025)

Test: in vitro
Conditions: human, hela cells, % viability
Compound `CN(CC(=O)O)C(=O)OCc1ccccc1` [CBK012752] has a viability at 28.5 h, 10 µM of 101%. `c1ccc(COc2ccc(N3CCNCC3)cc2)cc1` [CBK012776C] showed a viability at 28.5 h, 10 µM of 83.5%. In the case of `COc1ccc2[nH]cc(CC3CCNCC3)c2c1` [CBK012779], the viability at 28.5 h, 10 µM is reported as 104%. Compound `CC(=O)Nc1ccc(CNc2ccc(Cl)cc2)cc1` [CBK012799] has a viability at 28.5 h, 10 µM of 104%. `Cc1cccc(-n2c(C3CCCNC3=O)n[nH]c2=S)c1` (stereo not drawn) [CBK012842] showed a viability at 28.5 h, 10 µM of 89%. For `CCOC(=O)Cc1csc(NS(=O)(=O)c2cc(C)c(Cl)cc2Cl)n1` [CBK012872], the viability at 28.5 h, 10 µM was 91.3%. Work on `CC(C)NCC(O)c1c2c(cc3c1CCC3)CCC2` (stereo not drawn) [CBK012972F] yielded a viability at 28.5 h, 10 µM of 108%. Work on `CC(C)n1c(COc2ccc(OC(F)(F)F)cc2)n[nH]c1=S` [CBK012989] yielded a viability at 28.5 h, 10 µM of 92.9%. `Cn1ncc(Nc2ccccc2)c1C(=O)O` [CBK013004] showed a viability at 28.5 h, 10 µM of 114%. For `CC(C)CC1(C(CCN2C(=O)c3ccccc3C2=O)C(=O)NO)CCN(Cc2cccc(F)c2)C1=O` (stereo not drawn) [CBK013032], the viability at 28.5 h, 10 µM was 83.8%. Compound `O=C(NC1CCCCC1)NS(=O)(=O)c1ccc(CCNC(=O)c2cnc3ccccc3n2)cc1` [CBK013051] has a viability at 28.5 h, 10 µM of 87.1%. In the case of `CCCCCn1c(Cc2ccccc2)n[nH]c1=O` [CBK013059], the viability at 28.5 h, 10 µM is reported as 98.3%. `Clc1ccc2c(c1)CCC(NCC1COc3ccccc3O1)C2` (stereo not drawn) [CBK013077C] showed a viability at 28.5 h, 10 µM of 97.5%. Work on `COc1cccc(OC)c1OCCNC1CCc2cc(Cl)ccc2C1` (stereo not drawn) [CBK013079C] yielded a viability at 28.5 h, 10 µM of 88.9%. With `C#CCNCc1ccc(O)cc1` [CBK013235C] the viability at 28.5 h, 10 µM was 87.4%. In the case of `CC(C)(C)NCC(O)c1ccc(O)c2c1C1CCC2CC1` (stereo not drawn) [CBK013269C], the viability at 28.5 h, 10 µM is reported as 93.9%. `CCCCCn1c(-c2ccccc2)n[nH]c1=O` [CBK013288] gave a viability at 28.5 h, 10 µM of 83.3%. `O/N=C1\CC2(CCCCC2)c2ccccc21` [CBK013318] gave a viability at 28.5 h, 10 µM of 83%. For `c1ccc2c(c1)/C(=N/OCCN1CCCC1)CC21CCCCC1` [CBK013322], the viability at 28.5 h, 10 µM was 110%. For `CCN(CC)CCO/N=C1\CC2(CCCCC2)c2ccccc21` [CBK013325], the viability at 28.5 h, 10 µM was 101%. Work on `CN(C)CCO/N=C1\CC2(CCCC2)c2ccc(Cl)cc21` [CBK013334] yielded a viability at 28.5 h, 10 µM of 78.1%. For `OC(CCNC1CCCCC1)(c1ccccc1)c1ccccc1` [CBK013339], the viability at 28.5 h, 10 µM was 101%. In the case of `O=S(=O)(O)c1cccc2cccc(Nc3ccccc3)c12` [CBK013362G], the viability at 28.5 h, 10 µM is reported as 84.8%. For `O=C(Nc1cccc(C(F)(F)F)c1)N1CCN(CCCCc2ccc(F)cc2)CC1` [CBK013363C], the viability at 28.5 h, 10 µM was 90.4%. Work on `CC(C)(C)OC(=O)NC1CCc2ccccc2N(Cc2ccccc2)C1=O` (stereo not drawn) [CBK013366] yielded a viability at 28.5 h, 10 µM of 97.1%. Compound `c1coc(COc2cncc(N3CCNCC3)n2)c1` [CBK013393] has a viability at 28.5 h, 10 µM of 94.2%. For `O=c1c(N2CCNCC2)nccn1CCOc1cccc(Cl)c1Cl` [CBK013463], the viability at 28.5 h, 10 µM was 92.2%. In the case of `COc1cc(OC)c(C(C)=O)c(OCCOc2nccnc2N2CCNCC2)c1` [CBK013497T], the viability at 28.5 h, 10 µM is reported as 95.8%. With `c1ccc(OCCNc2nccnc2N2CCNCC2)cc1` [CBK013527] the viability at 28.5 h, 10 µM was 93.3%. Compound `CN(CCOc1ccc(CC2SC(=O)NC2=O)cc1)c1ccccn1` (stereo not drawn) [CBK013537] has a viability at 28.5 h, 10 µM of 101%. For `COc1ccc(CNC(N)=O)cc1` [CBK013588], the viability at 28.5 h, 10 µM was 104%. Work on `CCn1c2ccccc2c2cc(C#N)c(=O)[nH]c21` [CBK013595] yielded a viability at 28.5 h, 10 µM of 93.9%. Compound `O=C(CCN1CCCCC1)NCC1OCCc2ccccc21` (stereo not drawn) [CBK013619] has a viability at 28.5 h, 10 µM of 97%. In the case of `CC1CN(Cc2ccccc2)CCN1c1cnccn1` (stereo not drawn) [CBK013684], the viability at 28.5 h, 10 µM is reported as 102%. Compound `CCOC(=O)C(NCCc1ccc(OC)c(OC)c1)(NC(=O)c1ccco1)C(F)(F)F` (stereo not drawn) [CBK013715] has a viability at 28.5 h, 10 µM of 123%. Work on `O=C(O)CCSC1=CCS(=O)(=O)c2ccc(Cl)cc21` [CBK013721] yielded a viability at 28.5 h, 10 µM of 114%. Compound `O=C(c1ccccc1)c1ccccc1-n1nccn1` [CBK013849] has a viability at 28.5 h, 10 µM of 99%.

Same assay, conditions: human, hela cells, % viability, bulk resorufin, single well
In the case of `COc1cc(Cl)ccc1NC(=O)Oc1cccc2cnccc12` [CBK012882], the viability at 28.5 h, 10 µM is reported as 79.9%. `COc1ccc(Cl)cc1N1CCNCC1` [CBK013449C] gave a viability at 28.5 h, 10 µM of 89.4%.
